Laboratory results as given in the supplement of paper PMC4862054.

Tested on: CAL-148
Experiment: normalised response (% of control), CellTox Green; higher = less cell death (100 = DMSO, 0 = benzethonium chloride kill control)
Settings: incubation time: 72 h
Method in brief: (§1)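 Two readouts were taken after 72 h: CellTox Green fluorescence (485/520 nm) first, then CellTiter-Glo luminescence after 10 min at room temperature. Breast cancer cell lines had been seeded as 20 µl suspension into 384-well plates holding compound at 5 concentrations in 10-fold steps across a compound-specific 10,000-fold range. Each value is a normalised signal at a single concentration, with plates scaled to 0.1 % DMSO (100) and a positive kill control (0).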

Going from `COc1ccc(S(=O)(=O)Nc2cccnc2Nc2ccc(O)cc2)cc1` [ABT-751] (100 nM) to `CC(C)n1cnc2c(NCCc3ccc(O)cc3)nc(-c3csc4ccccc34)nc21` [StemRegenin 1] (100 nM), the normalised response falls from 104% to 103%.

Compared with `CCNC(=O)CCC/C=C\C[C@@H]1[C@@H](/C=C/[C@@H](O)CCc2ccccc2)[C@H](O)C[C@@H]1O` [Bimatoprost] (55 nM), `CCN(CC)CCCC(C)Nc1ccnc2cc(Cl)ccc12` (stereo not given) [Chloroquine] (1000 nM) is higher in normalised response: 95% for the first, 104% for the second.

Compared with `COc1cc(Nc2c(C#N)cnc3cc(OCCCN4CCN(C)CC4)c(OC)cc23)c(Cl)cc1Cl` [Bosutinib] (100 nM), `CC1(C)CCC(c2ccc(Cl)cc2)=C(CN2CCN(c3ccc(C(=O)NS(=O)(=O)c4ccc(N[C@H](CCN5CCOCC5)CSc5ccccc5)c(S(=O)(=O)C(F)(F)F)c4)cc3)CC2)C1` [Navitoclax] (100 nM) is lower in normalised response: 105% for the first, 100% for the second.

Compared with `CC(C)(C)c1nc(-c2cccc(NS(=O)(=O)c3c(F)cccc3F)c2F)c(-c2ccnc(N)n2)s1` [Dabrafenib] (25 nM), `CO[C@@]12[C@H](COC(N)=O)C3=C(C(=O)C(C)=C(N)C3=O)N1C[C@@H]1N[C@@H]12` [Mitomycin C] (100 nM) is lower in normalised response: 106% for the first, 60.3% for the second.

Tested on: BT-549
Experiment: as above
Settings: incubation time: 72 h
Method in brief: as §1

Compared with `CCn1c(C(=O)N(C2CC2)C2CC2)cc2c3c(ncn3C)c(Nc3cc(C)n(C)n3)nc21` (100 nM), `CC(C)n1cnc2c(NCCc3ccc(O)cc3)nc(-c3csc4ccccc34)nc21` [StemRegenin 1] (100 nM) is lower in normalised response: 106% for the first, 100% for the second.

Going from `COc1ccc(S(=O)(=O)Nc2cccnc2Nc2ccc(O)cc2)cc1` [ABT-751] (100 nM) to `CC(C)(C)c1nc(-c2cccc(NS(=O)(=O)c3c(F)cccc3F)c2F)c(-c2ccnc(N)n2)s1` [Dabrafenib] (25 nM), the normalised response rises from 95.4% to 98.8%.

Compared with `CCNC(=O)CCC/C=C\C[C@@H]1[C@@H](/C=C/[C@@H](O)CCc2ccccc2)[C@H](O)C[C@@H]1O` [Bimatoprost] (55 nM), `CCN(CC)CCCC(C)Nc1ccnc2cc(Cl)ccc12` (stereo not given) [Chloroquine] (1000 nM) is higher in normalised response: 94.8% for the first, 105% for the second.

First: COc1cc(Nc2c(C#N)cnc3cc(OCCCN4CCN(C)CC4)c(OC)cc23)c(Cl)cc1Cl [Bosutinib] (100 nM)
Second: CC1(C)CCC(c2ccc(Cl)cc2)=C(CN2CCN(c3ccc(C(=O)NS(=O)(=O)c4ccc(N[C@H](CCN5CCOCC5)CSc5ccccc5)c(S(=O)(=O)C(F)(F)F)c4)cc3)CC2)C1 [Navitoclax] (100 nM)
The normalised response of the first is higher: 97.1% for the first, 96.6% for the second.

`CO[C@@]12[C@H](COC(N)=O)C3=C(C(=O)C(C)=C(N)C3=O)N1C[C@@H]1N[C@@H]12` [Mitomycin C] (100 nM) gave a normalised response of 99.5%.

Tested on: CAL-85-1
Experiment: as above
Settings: incubation time: 72 h
Method in brief: as §1

Compared with `CCn1c(C(=O)N(C2CC2)C2CC2)cc2c3c(ncn3C)c(Nc3cc(C)n(C)n3)nc21` (100 nM), `CC(C)n1cnc2c(NCCc3ccc(O)cc3)nc(-c3csc4ccccc34)nc21` [StemRegenin 1] (100 nM) is higher in normalised response: 108% for the first, 113% for the second.

Compared with `COc1ccc(S(=O)(=O)Nc2cccnc2Nc2ccc(O)cc2)cc1` [ABT-751] (100 nM), `CC(C)(C)c1nc(-c2cccc(NS(=O)(=O)c3c(F)cccc3F)c2F)c(-c2ccnc(N)n2)s1` [Dabrafenib] (25 nM) is higher in normalised response: 92.2% for the first, 107% for the second.

Going from `CCNC(=O)CCC/C=C\C[C@@H]1[C@@H](/C=C/[C@@H](O)CCc2ccccc2)[C@H](O)C[C@@H]1O` [Bimatoprost] (55 nM) to `CCN(CC)CCCC(C)Nc1ccnc2cc(Cl)ccc12` (stereo not given) [Chloroquine] (1000 nM), the normalised response rises from 83.9% to 110%.

Compared with `COc1cc(Nc2c(C#N)cnc3cc(OCCCN4CCN(C)CC4)c(OC)cc23)c(Cl)cc1Cl` [Bosutinib] (100 nM), `CC1(C)CCC(c2ccc(Cl)cc2)=C(CN2CCN(c3ccc(C(=O)NS(=O)(=O)c4ccc(N[C@H](CCN5CCOCC5)CSc5ccccc5)c(S(=O)(=O)C(F)(F)F)c4)cc3)CC2)C1` [Navitoclax] (100 nM) is lower in normalised response: 117% for the first, 93.6% for the second.

With `CO[C@@]12[C@H](COC(N)=O)C3=C(C(=O)C(C)=C(N)C3=O)N1C[C@@H]1N[C@@H]12` [Mitomycin C] (100 nM) the normalised response was 93.3%.

Tested on: MDA-MB-231
Experiment: as above
Settings: incubation time: 72 h
Method in brief: as §1

Going from `CCn1c(C(=O)N(C2CC2)C2CC2)cc2c3c(ncn3C)c(Nc3cc(C)n(C)n3)nc21` (100 nM) to `CC(C)n1cnc2c(NCCc3ccc(O)cc3)nc(-c3csc4ccccc34)nc21` [StemRegenin 1] (100 nM), the normalised response rises from 106% to 111%.

First: COc1ccc(S(=O)(=O)Nc2cccnc2Nc2ccc(O)cc2)cc1 [ABT-751] (100 nM)
Second: CC(C)(C)c1nc(-c2cccc(NS(=O)(=O)c3c(F)cccc3F)c2F)c(-c2ccnc(N)n2)s1 [Dabrafenib] (25 nM)
The normalised response of the first is lower: 102% for the first, 114% for the second.

First: CCNC(=O)CCC/C=C\C[C@@H]1[C@@H](/C=C/[C@@H](O)CCc2ccccc2)[C@H](O)C[C@@H]1O [Bimatoprost] (55 nM)
Second: CCN(CC)CCCC(C)Nc1ccnc2cc(Cl)ccc12 (stereo not given) [Chloroquine] (1000 nM)
The normalised response of the first is higher: 99.8% for the first, 98% for the second.

Compared with `COc1cc(Nc2c(C#N)cnc3cc(OCCCN4CCN(C)CC4)c(OC)cc23)c(Cl)cc1Cl` [Bosutinib] (100 nM), `CC1(C)CCC(c2ccc(Cl)cc2)=C(CN2CCN(c3ccc(C(=O)NS(=O)(=O)c4ccc(N[C@H](CCN5CCOCC5)CSc5ccccc5)c(S(=O)(=O)C(F)(F)F)c4)cc3)CC2)C1` [Navitoclax] (100 nM) is lower in normalised response: 104% for the first, 73.8% for the second.

In the case of `CO[C@@]12[C@H](COC(N)=O)C3=C(C(=O)C(C)=C(N)C3=O)N1C[C@@H]1N[C@@H]12` [Mitomycin C] (100 nM), the normalised response is reported as 97%.

Tested on: DU-4475
Experiment: as above
Settings: incubation time: 72 h
Method in brief: as §1

Going from `CCn1c(C(=O)N(C2CC2)C2CC2)cc2c3c(ncn3C)c(Nc3cc(C)n(C)n3)nc21` (100 nM) to `COc1cc(Nc2c(C#N)cnc3cc(OCCCN4CCN(C)CC4)c(OC)cc23)c(Cl)cc1Cl` [Bosutinib] (100 nM), the normalised response rises from 101% to 109%.

Going from `COc1ccc(S(=O)(=O)Nc2cccnc2Nc2ccc(O)cc2)cc1` [ABT-751] (100 nM) to `CCN(CC)CCCC(C)Nc1ccnc2cc(Cl)ccc12` (stereo not given) [Chloroquine] (1000 nM), the normalised response rises from 97.4% to 99.9%.

With `CCNC(=O)CCC/C=C\C[C@@H]1[C@@H](/C=C/[C@@H](O)CCc2ccccc2)[C@H](O)C[C@@H]1O` [Bimatoprost] (55 nM) the normalised response was 96.9%.
